Results: US20250066446A1, “FUSION PROTEINS FOR THE TREATMENT OF CARDIOMETABOLIC DISEASES” (Shattuck Labs, Inc., priority 2022, published 2025)
Entries after “also recorded” stand apart in the source; their conditions may differ. Where no end group is shown, it is not given here.

Key:
[1] = biological target: glucose-dependent insulinotropic polypeptide receptor (GlPR) on GeneBLAzer GlPR-CRE-bla HEK293T cells (UniProt P48546); test: cell-based or functional assay
[2] = biological target: GlP receptor (GlPR) of rat INS-1 insulinoma cells (UniProt P43219)
GlPR = biological target: T1, GlPR (Rattus norvegicus, UniProt P43219); test: pGloSensor-22F cAMP biosensor assay in rat INS-1 cells (GlPR agonism and antagonism); format: cell-based; parameters: dose or concentration left out as unconfirmed; conditions: increasing doses mixed with GlP(Ag)
T1 construct: endogenous in cells; host or cells: rat INS-1 insulinoma cells carrying a cAMP reporter (a cAMP-luciferase reporter in A2, the pGloSensor-22F biosensor in A4)
T1 sequence (P43219 19-455): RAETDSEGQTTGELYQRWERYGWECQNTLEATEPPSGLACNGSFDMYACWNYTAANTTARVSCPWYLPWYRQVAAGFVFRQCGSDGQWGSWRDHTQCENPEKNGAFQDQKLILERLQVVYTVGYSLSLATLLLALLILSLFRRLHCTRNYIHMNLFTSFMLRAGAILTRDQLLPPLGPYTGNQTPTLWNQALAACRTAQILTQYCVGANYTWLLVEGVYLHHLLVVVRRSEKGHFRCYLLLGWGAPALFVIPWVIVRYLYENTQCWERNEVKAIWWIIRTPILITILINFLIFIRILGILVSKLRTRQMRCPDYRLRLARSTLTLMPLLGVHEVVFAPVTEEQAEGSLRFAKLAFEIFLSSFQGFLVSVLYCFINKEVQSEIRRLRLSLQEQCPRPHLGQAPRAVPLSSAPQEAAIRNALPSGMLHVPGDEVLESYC
Experimental: Briefly, rat INS-1 cells having pGloSensor-22F (Promega) were constructed and used to evaluate GlPR agonism and antagonism. […] The conformational change leads to the activation of the luciferase enzyme, thereby allowing detection of activation of GlPR, which produces cAMP upon activation.
Immediately after the addition, the luminescence of the cells was measured, normalized using the basal luminescence and plotted.

[3] = human NASH patients; cited from earlier work
[4] = Longer-term obesity model in HFD-fed mice; conditions: for blood glucose levels: Days 0, 1, 10 and 15; for blood glucose levels / average daily food intake: compared to the untreated mice; for plasma insulin levels on Day 15: FIG. 8C right panel; for liver weight / subcutaneous white adipose tissue (sWAT) weight: day 19 terminal necropsy, vs PBS control; for change in body weight: tail vein dosing Day 0, 4, 7, 10, 14, 18, weighed every 2 days; for collagen staining (fibrosis), picrosirius red liver sections / hepatocellular ballooning and steatosis, H&E liver histology: vs vehicle-treated mice
Experimental: Mice (Male C57BL/6) were of approximately 13 weeks of age were housed 4 mice per cage. Following 2 weeks of acclimatation, mice were introduced to 60% kcal HFD (Research Diets D12492). Cages were changed once, then changed once a week. Weekly body weights and non-fasted blood glucose were collected.
Mice were injected by tail vein with vehicle or the drugs on Day 0, Day 4, Day 7, Day 10, Day 14, and Day 18. Body weights were measured every 2 days. Change in body weight was calculated and plotted.
Cumulative food intake was measured between day 0 and 3, between day 4 and 7, between day 7 and day 11, and between day 11 and day 14, and represented as average daily food intake. For food consumption, remaining food was weighed on days 3, 8, and 15, and subtracted from the starting weight. This value was then normalized to the number of mice in the cage, and the number of days the mice had access to the food prior to weighing.
Blood glucose levels were measured on Days 0, 1, 10 and 15 and plotted.
On day 19 during terminal necropsy, liver and subcutaneous white adipose tissue were recovered weighed from treated animals.
To further analyze the changes in liver, histopathological analysis was conducted. Briefly, the liver tissue was stained with hematoxylin and eosin (H&E) and evaluated using standard techniques.

GlP receptor (GlPR) = biological target: T2, GlP receptor (GlPR) (Rattus norvegicus, UniProt P43219); test: cAMP-Glo assay in rat insulinoma INS-1 cells harboring a cAMP-luciferase reporter gene; format: cell-based; conditions: 1 hour glucose, then 2 hour incubation with increasing amounts
T2 construct: endogenous in cells; host or cells: rat INS-1 insulinoma cells carrying a cAMP reporter (a cAMP-luciferase reporter in A2, the pGloSensor-22F biosensor in A4)
T2 sequence (P43219 19-455): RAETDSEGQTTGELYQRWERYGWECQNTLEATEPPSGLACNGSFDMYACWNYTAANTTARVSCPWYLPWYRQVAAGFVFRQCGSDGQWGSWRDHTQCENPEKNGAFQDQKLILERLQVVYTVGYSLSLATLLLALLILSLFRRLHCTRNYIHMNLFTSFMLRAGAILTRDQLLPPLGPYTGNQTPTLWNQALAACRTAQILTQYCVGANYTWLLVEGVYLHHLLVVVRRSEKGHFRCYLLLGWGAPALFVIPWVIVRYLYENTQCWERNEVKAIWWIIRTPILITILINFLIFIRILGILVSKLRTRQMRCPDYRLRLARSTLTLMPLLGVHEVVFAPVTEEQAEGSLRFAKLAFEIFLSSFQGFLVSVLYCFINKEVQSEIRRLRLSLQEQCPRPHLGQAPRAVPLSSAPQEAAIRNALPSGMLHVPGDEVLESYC
Description: Rat insulinoma INS-1 cells harboring a cAMP-luciferase reporter gene were used to study the activation of GlPR. Without wishing to be bound by theory, the activation of GlPR leads to temporary depletion of ATP because of consumption of ATP in cyclization reaction to produce cAMP as well as by phosphorylation by protein kinase A of its substrate. Without wishing to be bound by theory, the temporary depletion of ATP leads to an inhibition of luciferase activity, which needs ATP as a substrate.

[5] = Glucose tolerance test (GTT) model in HFD-fed mice; format: in vivo, mice (Male C57BL/6); conditions: i.v. treatment, 18 hours fast, 2 g/kg glucose, 15 min to 2 hours
Experimental: Cages were changed once, then changed once a week.
The mice administered the above treatment by i.v. injections. The mice were then fasted for 18 hours and administered a dose of 2 g/kg glucose by i.v. injections. Blood samples were drawn by tail clip bleeding at 15, 30 and 60 minutes post dosing and cardiac bleeding was used at 2 hours after glucose injection as end-point.

[6] = biological target: T3, glucose-dependent insulinotropic polypeptide receptor (GlPR) (Homo sapiens, UniProt P48546); test: GeneBLAzer GlPR-CRE-bla HEK293T cell-based reporter assay; conditions: 5 hours incubation; for 460/530 ratio, indicative of the activation of GlPR: increasing amounts
T3 construct: host or cells: GeneBLAzer GIPR-CRE-bla HEK293T cells
T3 sequence (P48546 22-466): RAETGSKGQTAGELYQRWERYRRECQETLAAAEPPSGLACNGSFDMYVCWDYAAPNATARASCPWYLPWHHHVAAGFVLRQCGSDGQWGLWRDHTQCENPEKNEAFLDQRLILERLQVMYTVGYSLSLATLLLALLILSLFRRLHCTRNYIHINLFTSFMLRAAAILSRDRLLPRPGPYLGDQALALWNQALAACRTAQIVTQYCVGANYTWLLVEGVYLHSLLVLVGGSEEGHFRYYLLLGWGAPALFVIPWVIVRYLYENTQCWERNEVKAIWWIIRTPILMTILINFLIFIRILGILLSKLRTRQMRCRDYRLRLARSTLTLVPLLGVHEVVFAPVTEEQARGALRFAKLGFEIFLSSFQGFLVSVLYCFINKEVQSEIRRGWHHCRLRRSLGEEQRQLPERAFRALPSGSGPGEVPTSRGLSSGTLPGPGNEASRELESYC
Experimental: This assay is diagrammatically represented in FIG. 3A. […] In the presence of the β-lactamase LiveBLAzer™ substrate, cells expressing β-lactamase fluoresce blue (460 nm), while those not expressing β-lactamase fluoresce green (530 nm); higher 460/530 ratio indicates the activation of GlPR.
Briefly, GeneBLAzer® GlPR-CRE-bla HEK293T cells were added to wells of black-wall assay plates. […] To each well, LiverBLAzer-FRET B/G substrate mixture was added. The plate was covered with plate sealer and incubated at room temperature for 2 hours in the dark. Fluorescence emission was measured on SpectraMax plate reader at 460 nm and 530 nm with excitation set to 409 nm. After subtraction of background, average value at 460 nm (blue color) was divided by average value at 530 nm (green color) to obtain the 460/530 ratio.

[7] = test system: rat insulinoma INS-1 cells; test: in vitro glucose-stimulated insulin secretion (GSIS) in INS-1 cells; format: cell-based; conditions: 1 hour glucose, then 2 hour incubation; ELISA
Description: X is a known inducer of GSIS.

GlP(Ag)-Fc fusion protein (from UniProt P09681 52-93)
EC50 of GlPR activation (460/530 ratio, GeneBLAzer GlPR-CRE-bla HEK293T beta-lactamase reporter) [1]: 11.8 pM | EC50 (read off the curve): fall of cAMP-Glo luminescence, rat INS-1 cells [2]: 0.007 pM

GlP(AntPro3): GlP Antagonist (amino acids 1-42, having a E3P substitution); SEQ ID NO: 97 (YAPGTFISDYSIAMDKIHQQDFVNWLLAQKGKKNDWKHNITQ)
inhibition of GlP(Ag)-induced activation of the cAMP-luciferase reporter gene (GlPR antagonism) (GlPR): more potent inhibition of GlP agonist signaling than the others tested; also recorded: maximal level of a dose-dependent inhibition of GlP(Ag)-induced activation

GlP(AntPro3NH2): GlP antagonist peptide derivative of GlP(AntPro3), NH2 form (YAPGTFISDYSIAMDKIHQQDFVNWLLAQKGKKNDWKHNITQ-NH2)
inhibition of GlP(Ag)-induced activation of the cAMP-luciferase reporter gene (GlPR antagonism) (GlPR): more potent inhibition of GlP agonist signaling than the others tested; also recorded: maximal level of a dose-dependent inhibition of GlP(Ag)-induced activation

Pegbelfermin [Pegbelfermin (BMS-986036)]
liver fat content [3]: reduce liver fat content

dulaglutide [reference compound]
blood glucose levels [4]: decrease in blood glucose | plasma insulin levels on Day 15 [4]: significant decrease in the levels of insulin | plasma insulin levels on Day 1 ([4]; between 15 and 120 minutes after treatment): rapid decrease in insulin levels | average daily food intake [4]: decrease in food intake | liver weight [4]: livers of control mice that received only PBS were much heavier | subcutaneous white adipose tissue (sWAT) weight [4]: decreased | change in body weight [4]: progressive weight loss | tolerability, clinical observations ([4]; tail vein dosing Day 0 to Day 18): well tolerated and no overt toxicities were noted | collagen staining (fibrosis), picrosirius red liver sections [4]: decrease in collagen staining | hepatocellular ballooning and steatosis, H&E liver histology [4]: decrease in hepatocellular ballooning and steatosis

tirzepatide (peptide)
EC50 (read off the curve): fall of cAMP-Glo luminescence, rat INS-1 cells [2]: 0.003 pM

tirzepatide [reference compound]
luciferase activity (cAMP-Glo), activation of GlPR (GlP receptor (GlPR)): dose-dependent and saturable inhibition of luciferase with similar potency | serum insulin following glucose administration [5]: rapid induction of insulin | serum glucose following glucose administration ([5]; vs PBS control): much smaller increase in serum glucose | 460/530 ratio, indicative of the activation of GlPR [6]: dose-dependent and saturable increase in 460/530 ratio | blood glucose levels [4]: decrease in blood glucose | plasma insulin levels on Day 15 [4]: significant decrease in the levels of insulin | average daily food intake [4]: decrease in food intake | hepatocellular ballooning and steatosis, H&E under higher magnifications ([4]; compared to untreated animals): significant decrease in hepatocellular ballooning and steatosis | liver weight [4]: livers of control mice that received only PBS were much heavier | subcutaneous white adipose tissue (sWAT) weight [4]: decreased | change in body weight [4]: progressive weight loss | collagen staining (fibrosis), picrosirius red liver sections [4]: decrease in collagen staining | hepatocellular ballooning and steatosis, H&E liver histology [4]: decrease in hepatocellular ballooning and steatosis

B1: GlP(Ag)-Fc-FGF19: GlP fused to FGF19 via a hinge-CH2-CH3 Fc domain derived from IgG1; SEQ ID NO: 88 (protein)
chain: YAEGTFISDYSIAMDKIHQQDFVNWLLAQKGKKNDWKHNITQPCPAPEAAGGPSVFLFPPKPKDTLMISRTPEVTCVVVDVSHEDPEVKFNWYVDGVEVHNAKTKPREEQYNSTYRVVSVLTVLHQDWLNGKEYKCKVSNKALPAPIEKTISKAKGQPREPQVYTLPPSRDELTKNQVSLTCLVKGFYPSDIAVEWESNGQPENNYKTTPPVLDSDGSFFLYSKLTVDKSRWQQGNVFSCSVMHEALHNHYTQKSLSLSPGKIEGRMDRDSSPLVHYGWGDPIRLRHLYTSGPHGLSSCFLRIRADGVVDCARGQSAHSLLEIKAVALRTVAIKGVHSVRYLCMGADGKMQGLLQYSEEDCAFEEEIRPDGYNVYRSEKHRLPVSLSSAKQRQLYKNRGFLPLSHFLPMLPMVPEEPEDLRGHLESDMFSSPLETDSMDPFGLVTGLEAVRSPSFEK
luciferase activity (cAMP-Glo), activation of GlPR (GlP receptor (GlPR)): dose-dependent and saturable inhibition of luciferase with similar potency | insulin in the culture supernatant (GSIS) [7]: stimulated insulin production to a similar, if not greater magnitude than dulaglutide or tirzepatide | EC50 ([6]; 460/530 ratio, purified proteins, read-out: EC50 of GlPR activation): 13.1 pM | 460/530 ratio, indicative of the activation of GlPR [6]: dose-dependent and saturable increase in 460/530 ratio
